The values that follow come from US20160002204A1 (Board of Regents, The University of Texas System, priority 2014, published 2016).

Each structure is given as a SMILES string. Values joined by “and” are separate entries in the source; they are usually repeats but may differ in a detail not shown here. Equal entries are not always repeated. Some results are limits rather than exact numbers.

Assay [1] has as its system A549 cells. Nature of the assay: A549 proliferation (viability) assay, Cell Titer Fluor, 72 hours. Type of assay: cell-based. The following applies: Homo sapiens. In outline: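 Fluorescence read-out (Cell Titer Fluor, 30 min at 37 °C after reagent) after 72 h compound exposure of A549 cells; EC50 by four-parameter logistic curve fit. Cells: 1000/well, RPMI 1640 + 10% dialyzed FBS, 0.5% DMSO final.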

Assay [2] deals with T1, GLS1 (purified recombinant human GAC) (Homo sapiens, UniProt O94925).
T1 sequence (O94925 55-598 isoform O94925-3 limits assumed): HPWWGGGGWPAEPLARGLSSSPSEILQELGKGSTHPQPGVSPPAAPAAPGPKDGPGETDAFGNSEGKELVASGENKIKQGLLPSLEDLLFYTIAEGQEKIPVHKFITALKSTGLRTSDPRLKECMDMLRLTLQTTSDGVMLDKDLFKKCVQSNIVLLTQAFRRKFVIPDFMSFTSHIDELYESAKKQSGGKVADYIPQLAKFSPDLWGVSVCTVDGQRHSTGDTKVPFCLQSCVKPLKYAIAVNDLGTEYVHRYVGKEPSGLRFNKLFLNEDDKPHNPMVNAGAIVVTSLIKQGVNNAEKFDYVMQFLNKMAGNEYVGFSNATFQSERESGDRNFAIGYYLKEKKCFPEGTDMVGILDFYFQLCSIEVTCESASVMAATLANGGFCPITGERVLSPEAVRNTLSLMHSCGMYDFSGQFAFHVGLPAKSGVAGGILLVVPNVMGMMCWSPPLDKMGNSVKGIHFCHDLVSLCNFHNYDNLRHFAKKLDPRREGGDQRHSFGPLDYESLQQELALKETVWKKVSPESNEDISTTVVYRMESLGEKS
Briefly: GLS1 enzymatic activity assay (dual-coupled, Amplex UltraRed/resorufin). The assay is classed as biochemical. In outline: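 In this coupled fluorometric format, phosphate-activated GAC (2 nM, 50 mM phosphate) is pre-exposed to compound for 10 min before 1 mM glutamine addition. Product is tracked as resorufin (530/590 nm) over time or at 20 min, and potency is derived by logistic fitting.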

Broadly, the EC50 is the concentration at which the effect is half-maximal. A higher EC50 goes with a need for much substance. By IC50 is commonly meant the concentration needed to halve the response being measured.

Molecule `CC(C)CC(=O)Nc1ccn(CCCCc2ccc(NC(=O)Cc3cccc(OC(F)(F)F)c3)nn2)c(=O)n1` [Example 111, 3-methyl-N-{2-oxo-1-[4-(6-{2-[3-(trifluoromethoxy)phenyl]acetamido}pyridazin-3-yl)butyl]-1,2-dihydropyrimidin-4-yl}butanamide] came in with an EC50 in assay [1] of less than 100 nM. The IC50 in assay [2] is less than 100 nM.
Molecule `COCCOC(=O)Nc1ccn(CCCCc2ccc(NC(=O)Cc3cccc(OC(F)(F)F)c3)nn2)c(=O)n1` [Example 112, 2-methoxyethyl N-{2-oxo-1-[4-(6-{2-[3-(trifluoro-methoxy)phenyl]acetamido}pyridazin-3-yl)butyl]-1,2-dihydropyrimidin-4-yl}carbamate] returned an EC50 in assay [1] of 100 to 500 nM. Moreover, the 50% inhibitory concentration (IC50) in assay [2] is less than 100 nM.
For `O=C(Cc1cccc(OC(F)(F)F)c1)Nc1ccc(CCCCn2ccc(NC(=O)CO)nc2=O)nn1` [Example 113, 2-hydroxy-N-{2-oxo-1-[4-(6-{2-[3-(trifluoromethoxy)phenyl]acetamido}pyridazin-3-yl)butyl]-1,2-dihydropyrimidin-4-yl}acetamide], in that order: 500 to 5000 nM and less than 100 nM.
The matching figures for `Cn1cc(CC(=O)Nc2ccn(CCCCc3ccc(NC(=O)Cc4cccc(OC(F)(F)F)c4)nn3)c(=O)n2)cn1` [Example 114, N-[6-(4-{4-[2-(1-methyl-1H-pyrazol-4-yl)acetamido]-2-oxo-1,2-dihydropyrimidin-1-yl}butyl)pyridazin-3-yl]-2-[3-(trifluoromethoxy)phenyl]acetamide]: less than 100 nM and less than 100 nM.
The matching figures for `O=C(Cc1cccc(OC(F)(F)F)c1)Nc1ccc(CCCCn2ccc(NC(=O)Cc3cccnc3)nc2=O)nn1` [Example 116, N-[6-(4-{2-oxo-4-[2-(pyridin-3-yl)acetamido]-1,2-dihydropyrimidin-1-yl}butyl)pyridazin-3-yl]-2-[3-(trifluoromethoxy)phenyl]acetamide]: less than 100 nM and less than 100 nM.
In turn, `O=C(Cc1cccc(OC(F)(F)F)c1)Nc1ccc(CCCCn2ccc(NC(=O)CCO)nc2=O)nn1` [Example 117, 3-hydroxy-N-{2-oxo-1-[4-(6-{2-[3-(trifluoromethoxy)phenyl]acetamido}pyridazin-3-yl)butyl]-1,2-dihydropyrimidin-4-yl}propanamide] came in with an EC50 in assay [1] of 500 to 5000 nM. Besides, the IC50 in assay [2] was less than 100 nM.
For `O=C(Cc1cccc(OC(F)(F)F)c1)Nc1ccc(CCCCn2ccc(NC(=O)Cc3ccccn3)nc2=O)nn1` [Example 118, N-[6-(4-{2-oxo-4-[2-(pyridin-2-yl)acetamido]-1,2-dihydropyrimidin-1-yl}butyl)pyridazin-3-yl]-2-[3-(trifluoromethoxy)phenyl]acetamide], in that order: less than 100 nM and less than 100 nM.
The matching figures for `O=C(Nc1ccn(CCCCc2nnc(C(=O)NCCO)s2)c(=O)n1)OCc1ccccc1` [Example 119, benzyl N-[1-(4-{5-[(2-hydroxyethyl)carbamoyl]-1,3,4-thiadiazol-2-yl}butyl)-2-oxo-1,2-dihydropyrimidin-4-yl]carbamate]: more than 5000 nM and 500 to 5000 nM.
Molecule `O=C(Nc1ccn(CCCCc2nnc(C(=O)NCc3ccccn3)s2)c(=O)n1)OCc1ccccc1` [Example 120, benzyl N-[2-oxo-1-(4-{5-[(pyridin-2-ylmethyl)carbamoyl]-1,3,4-thiadiazol-2-yl}butyl)-1,2-dihydropyrimidin-4-yl]carbamate] showed an EC50 in assay [1] of 500 to 5000 nM. The IC50 in assay [2] was 500 to 5000 nM and 100 to 500 nM.
Take `COCCNC(=O)c1nnc(CCCCn2ccc(NC(=O)OCc3ccccc3)nc2=O)s1` [Example 121, benzyl N-[1-(4-{5-[(2-methoxyethyl)carbamoyl]-1,3,4-thiadiazol-2-yl}butyl)-2-oxo-1,2-dihydropyrimidin-4-yl]carbamate]: the EC50 in assay [1] is more than 5000 nM. Moreover, the IC50 in assay [2] fell in the range of 500 to 5000 nM.
Turning to `O=C(Nc1ccn(CCCCc2nnc(C(=O)NCc3ccccc3)s2)c(=O)n1)OCc1ccccc1` [Example 122, benzyl N-(1-{4-[5-(benzylcarbamoyl)-1,3,4-thiadiazol-2-yl]butyl}-2-oxo-1,2-dihydropyrimidin-4-yl)carbamate], in assay [1], the EC50 was 100 to 500 nM. Besides, in assay [2], the IC50 is 100 to 500 nM.
`Cc1ccc(CNC(=O)c2cn(C[C@@H](F)CCn3ccc(NC(=O)Cc4ccccc4)c(F)c3=O)nn2)cn1` [Example 124, (S)-1-(2-fluoro-4-(3-fluoro-2-oxo-4-(2-phenylacetamido)pyridin-1(2H)-yl)butyl)-N-((6-methylpyridin-3-yl)methyl)-1H-1,2,3-triazole-4-carboxamide] gave an EC50 in assay [1] of 500 to 5000 nM. In assay [2], the IC50 lay within 100 to 500 nM.
Molecule `O=C(Cc1ccccc1)Nc1ccn(CC[C@H](F)Cn2cc(C(=O)NCc3cc(C(F)(F)F)ccn3)nn2)c(=O)c1F` [Example 125, (S)-1-(2-fluoro-4-(3-fluoro-2-oxo-4-(2-phenylacetamido)pyridin-1(2H)-yl)butyl)-N-((4-(trifluoromethyl)pyridin-2-yl)methyl)-1H-1,2,3-triazole-4-carboxamide] gave an EC50 in assay [1] of less than 100 nM. The IC50 in assay [2] is less than 100 nM.
As for `O=C(Cc1ccccc1)Nc1ccn(CC[C@H](F)Cn2cc(C(=O)NCc3cccc(C(F)(F)F)n3)nn2)c(=O)c1F` [Example 126, (S)-1-(2-fluoro-4-(3-fluoro-2-oxo-4-(2-phenylacetamido)pyridin-1(2H)-yl)butyl)-N-((6-(trifluoromethyl)pyridin-2-yl)methyl)-1H-1,2,3-triazole-4-carboxamide], the EC50 in assay [1] was in the range of 100 to 500 nM. For the same molecule, in assay [2], the IC50 is less than 100 nM.
In turn, `O=C(Cc1ccccc1)Nc1ccn(CC[C@H](F)Cn2cc(C(=O)NCc3cccc(OC(F)(F)F)c3)nn2)c(=O)c1F` [Example 127] yielded an EC50 in assay [1] of less than 100 nM. Further, the IC50 in assay [2] is less than 100 nM.
In turn, `CC(C)CNC(=O)Nc1nnc(CCCCn2ccc(NC(=O)CC3CCCC3)c(F)c2=O)s1` [Example 128, 2-cyclopentyl-N-(3-fluoro-1-(4-(5-(3-isobutylureido)-1,3,4-thiadiazol-2-yl)butyl)-2-oxo-1,2-dihydropyridin-4-yl)acetamide] registered an EC50 in assay [1] of more than 5000 nM. In addition, the concentration for half-maximal inhibition (IC50) in assay [2] was in the range of 100 to 500 nM.
In the case of `O=C(Cc1ccccc1)Nc1ccn(CCCCc2nnc(NC(=O)NCc3ccccc3)s2)c(=O)c1F` [Example 129, N-(1-(4-(5-(3-benzylureido)-1,3,4-thiadiazol-2-yl)butyl)-3-fluoro-2-oxo-1,2-dihydropyridin-4-yl)-2-phenylacetamide], the EC50 in assay [1] was 500 to 5000 nM. Besides, the IC50 in assay [2] was less than 100 nM.
In assay [1], `O=C(CC1CCCC1)Nc1ccn(CCCCc2nnc(NC(=O)NCc3ccccc3)s2)c(=O)c1F` [Example 130, N-(1-(4-(5-(3-benzylureido)-1,3,4-thiadiazol-2-yl)butyl)-3-fluoro-2-oxo-1,2-dihydropyridin-4-yl)-2-cyclopentylacetamide] displayed an EC50 of 500 to 5000 nM. Further, the IC50 in assay [2] was less than 100 nM.
With `O=C(CC1CCCC1)Nc1ccn(CCCCc2nnc(NC(=O)NCc3ccccn3)s2)c(=O)c1F` [Example 131, 2-cyclopentyl-N-(3-fluoro-2-oxo-1-(4-(5-(3-(pyridin-2-ylmethyl)ureido)-1,3,4-thiadiazol-2-yl)butyl)-1,2-dihydropyridin-4-yl)acetamide], the EC50 in assay [1] was in the range of 500 to 5000 nM. Besides, the IC50 in assay [2] was less than 100 nM.
On to `CNC(=O)Nc1nnc(CCCCn2ccc(NC(=O)CC3CCCC3)c(F)c2=O)s1` [Example 132, 2-cyclopentyl-N-(3-fluoro-1-(4-(5-(3-methylureido)-1,3,4-thiadiazol-2-yl)butyl)-2-oxo-1,2-dihydropyridin-4-yl)acetamide], for which the 50% effective concentration (EC50) in assay [1] was more than 5000 nM. In assay [2], the IC50 is 100 to 500 nM.
In assay [1], `O=C(CC1CCCC1)Nc1ccn(CCCCc2nnc(NC(=O)NCc3cccc(C(F)(F)F)c3)s2)c(=O)c1F` [Example 133, 2-cyclopentyl-N-(3-fluoro-2-oxo-1-(4-(5-(3-(3-(trifluoromethyl)benzyl)ureido)-1,3,4-thiadiazol-2-yl)butyl)-1,2-dihydropyridin-4-yl)acetamide] came in with an EC50 of 100 to 500 nM. In assay [2], the IC50 was less than 100 nM.
For `O=C(Cc1ccccc1)Nc1ccn(CCC(F)Cn2cc(C(=O)NCc3cccc(OC(F)(F)F)c3)nn2)c(=O)c1` (stereo not shown) [Example 134, 1-{2-fluoro-4-[2-oxo-4-(2-phenylacetamido)-1,2-dihydropyridin-1-yl]butyl}-N-{[3-(trifluoromethoxy)phenyl]methyl}-1H-1,2,3-triazole-4-carboxamide], in that order: less than 100 nM and less than 100 nM.
In assay [1], `Cc1ccc(CNC(=O)c2cn(CCCCn3ccc(NC(=O)OCc4ccccc4)cc3=O)nn2)cn1` [Example 135, benzyl N-{1-[4-(4-{[(6-methylpyridin-3-yl)methyl]carbamoyl}-1H-1,2,3-triazol-1-yl)butyl]-2-oxo-1,2-dihydropyridin-4-yl}carbamate] yielded an EC50 of 500 to 5000 nM. For the same molecule, the half-maximal inhibitory concentration (IC50) in assay [2] lay within 100 to 500 nM.
